Test results: ChEMBL document CHEMBL2406977, “The discovery of PLK4 inhibitors: (E)-3-((1H-Indazol-6-yl)methylene)indolin-2-ones as novel antiproliferative agents” (J Med Chem, 2013)

Key:
[1] = Permeability of the compound at pH 7.4 by PAMPA; format: ADME; conditions: read-out: permeability
HCC1954 = experiment: Antiproliferative activity against human HCC1954 cells assessed as growth inhibition after 5 days by SRB assay; format: functional; conditions: HCC1954, 120 h
MDA-MB-231 = experiment: Antiproliferative activity against human MDA-MB-231 cells assessed as growth inhibition after 5 days by SRB assay; format: functional; conditions: MDA-MB-231, 120 h
SK-BR-3 = experiment: Antiproliferative activity against human SKBR3 cells assessed as growth inhibition after 5 days by SRB assay; format: functional; conditions: SK-BR-3, 120 h
MDA-MB-468 = experiment: Antiproliferative activity against human MDA-MB-468 cells assessed as growth inhibition after 5 days by SRB assay; format: functional; conditions: MDA-MB-468, 120 h
MCF7 = experiment: Antiproliferative activity against human MCF7 cells assessed as growth inhibition after 5 days by SRB assay; format: functional; conditions: MCF7, 120 h
[2] = biological target: Serine/threonine-protein kinase PLK3 (Homo sapiens, UniProt Q9H4B4); experiment: Inhibition of PLK3 (unknown origin) by FRET-based homogeneous assay
Serine/threonine-protein kinase PLK3, sequence (Q9H4B4 whole entry): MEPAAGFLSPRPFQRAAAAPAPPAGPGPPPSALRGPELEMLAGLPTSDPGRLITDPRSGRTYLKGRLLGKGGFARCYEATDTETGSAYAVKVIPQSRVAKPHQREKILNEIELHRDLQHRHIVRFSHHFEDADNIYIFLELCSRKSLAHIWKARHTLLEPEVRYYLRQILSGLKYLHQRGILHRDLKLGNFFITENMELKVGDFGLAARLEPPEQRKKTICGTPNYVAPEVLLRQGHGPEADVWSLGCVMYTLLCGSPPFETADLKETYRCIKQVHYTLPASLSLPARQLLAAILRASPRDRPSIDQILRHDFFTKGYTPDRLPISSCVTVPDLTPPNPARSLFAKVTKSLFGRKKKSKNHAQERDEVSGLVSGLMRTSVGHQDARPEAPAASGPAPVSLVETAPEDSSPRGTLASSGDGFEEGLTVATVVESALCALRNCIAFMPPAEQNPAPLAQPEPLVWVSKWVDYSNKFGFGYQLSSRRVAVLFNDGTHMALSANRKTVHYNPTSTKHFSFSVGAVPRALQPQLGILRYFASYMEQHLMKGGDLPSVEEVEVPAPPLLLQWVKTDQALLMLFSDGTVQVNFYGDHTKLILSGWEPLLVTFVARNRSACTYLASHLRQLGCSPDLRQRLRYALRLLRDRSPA

[3] = biological target: Serine/threonine-protein kinase PLK1 (Homo sapiens, UniProt P53350); experiment: Inhibition of PLK1 (unknown origin) by FRET-based homogeneous assay
Serine/threonine-protein kinase PLK1, sequence (P53350 whole entry): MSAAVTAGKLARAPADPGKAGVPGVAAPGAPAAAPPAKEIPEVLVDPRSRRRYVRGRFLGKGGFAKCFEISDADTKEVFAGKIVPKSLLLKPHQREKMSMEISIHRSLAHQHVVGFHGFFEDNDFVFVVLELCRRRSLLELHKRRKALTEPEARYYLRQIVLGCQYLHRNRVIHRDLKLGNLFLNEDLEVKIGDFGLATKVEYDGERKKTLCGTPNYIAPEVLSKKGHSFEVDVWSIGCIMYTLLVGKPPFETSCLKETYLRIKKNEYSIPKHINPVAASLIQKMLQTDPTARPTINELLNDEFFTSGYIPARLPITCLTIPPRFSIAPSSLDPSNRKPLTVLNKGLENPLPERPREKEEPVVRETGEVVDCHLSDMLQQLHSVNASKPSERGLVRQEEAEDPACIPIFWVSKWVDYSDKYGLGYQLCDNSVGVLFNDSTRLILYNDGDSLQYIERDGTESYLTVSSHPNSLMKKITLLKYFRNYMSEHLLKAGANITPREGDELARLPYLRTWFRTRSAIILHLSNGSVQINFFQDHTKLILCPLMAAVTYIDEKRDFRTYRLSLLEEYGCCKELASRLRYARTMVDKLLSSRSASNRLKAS

[4] = biological target: Serine/threonine-protein kinase PLK2 (Homo sapiens, UniProt Q9NYY3); experiment: Inhibition of PLK2 (unknown origin) by FRET-based homogeneous assay
Serine/threonine-protein kinase PLK2, sequence (Q9NYY3 whole entry, the tested form may be a part): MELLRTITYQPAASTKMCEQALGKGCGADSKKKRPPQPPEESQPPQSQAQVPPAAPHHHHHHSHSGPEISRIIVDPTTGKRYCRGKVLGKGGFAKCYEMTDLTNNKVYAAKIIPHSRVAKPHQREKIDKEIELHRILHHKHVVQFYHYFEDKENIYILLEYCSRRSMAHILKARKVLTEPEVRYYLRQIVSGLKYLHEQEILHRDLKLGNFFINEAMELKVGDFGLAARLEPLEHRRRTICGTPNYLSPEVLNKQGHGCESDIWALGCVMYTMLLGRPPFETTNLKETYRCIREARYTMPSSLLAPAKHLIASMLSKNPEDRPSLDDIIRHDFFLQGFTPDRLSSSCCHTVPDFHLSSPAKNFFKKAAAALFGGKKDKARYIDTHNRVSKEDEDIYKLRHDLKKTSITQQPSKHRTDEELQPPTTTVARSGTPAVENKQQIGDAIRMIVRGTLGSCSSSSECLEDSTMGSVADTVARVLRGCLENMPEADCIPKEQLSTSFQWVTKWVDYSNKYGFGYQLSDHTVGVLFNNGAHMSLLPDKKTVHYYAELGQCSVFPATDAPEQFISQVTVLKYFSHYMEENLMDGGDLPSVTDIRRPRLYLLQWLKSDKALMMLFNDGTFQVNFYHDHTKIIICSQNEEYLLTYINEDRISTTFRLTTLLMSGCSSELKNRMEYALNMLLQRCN

[5] = biological target: T1, Serine/threonine-protein kinase PLK4 (Homo sapiens, UniProt O00444); experiment: Inhibition of N-terminal GST-tagged human PLK4 (1 to 391 amino acids) expressed in Escherichia coli using TMB as substrate after 30 mins by indirect ELISA assay
T1 sequence (O00444 whole entry): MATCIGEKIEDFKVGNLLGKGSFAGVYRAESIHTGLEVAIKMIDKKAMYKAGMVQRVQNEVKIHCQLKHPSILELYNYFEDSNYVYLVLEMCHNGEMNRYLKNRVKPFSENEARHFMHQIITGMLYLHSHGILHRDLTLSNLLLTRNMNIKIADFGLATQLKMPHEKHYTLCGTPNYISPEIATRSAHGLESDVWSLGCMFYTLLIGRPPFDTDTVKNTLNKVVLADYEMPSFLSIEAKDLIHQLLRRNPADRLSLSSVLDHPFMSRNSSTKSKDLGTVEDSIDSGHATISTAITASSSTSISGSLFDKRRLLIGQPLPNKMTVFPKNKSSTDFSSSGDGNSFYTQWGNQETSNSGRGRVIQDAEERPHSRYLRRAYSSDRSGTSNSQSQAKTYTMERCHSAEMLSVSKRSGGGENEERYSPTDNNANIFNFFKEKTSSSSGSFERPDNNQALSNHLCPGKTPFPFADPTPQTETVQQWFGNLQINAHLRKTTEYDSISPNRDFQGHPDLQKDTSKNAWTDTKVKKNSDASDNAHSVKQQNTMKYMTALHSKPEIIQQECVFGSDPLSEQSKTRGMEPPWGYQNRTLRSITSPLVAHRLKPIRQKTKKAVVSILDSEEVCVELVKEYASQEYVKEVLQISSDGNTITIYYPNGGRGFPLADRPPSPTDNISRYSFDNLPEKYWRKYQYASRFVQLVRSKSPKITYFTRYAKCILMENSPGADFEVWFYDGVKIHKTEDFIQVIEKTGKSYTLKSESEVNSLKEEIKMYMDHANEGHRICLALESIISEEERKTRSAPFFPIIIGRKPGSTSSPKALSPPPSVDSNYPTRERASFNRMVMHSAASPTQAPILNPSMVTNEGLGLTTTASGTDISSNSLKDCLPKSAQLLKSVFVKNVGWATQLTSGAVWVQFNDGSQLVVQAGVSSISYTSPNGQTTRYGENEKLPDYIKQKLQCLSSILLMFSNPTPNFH

Cytochrome P450 2C9 = Cytochrome P450 2C9 (Homo sapiens, UniProt P11712); experiment: Inhibition of CYP2C9 (unknown origin) using MFC as substrate after 45 mins by fluorescence assay; format: ADME
Cytochrome P450 2C9, sequence (P11712 whole entry): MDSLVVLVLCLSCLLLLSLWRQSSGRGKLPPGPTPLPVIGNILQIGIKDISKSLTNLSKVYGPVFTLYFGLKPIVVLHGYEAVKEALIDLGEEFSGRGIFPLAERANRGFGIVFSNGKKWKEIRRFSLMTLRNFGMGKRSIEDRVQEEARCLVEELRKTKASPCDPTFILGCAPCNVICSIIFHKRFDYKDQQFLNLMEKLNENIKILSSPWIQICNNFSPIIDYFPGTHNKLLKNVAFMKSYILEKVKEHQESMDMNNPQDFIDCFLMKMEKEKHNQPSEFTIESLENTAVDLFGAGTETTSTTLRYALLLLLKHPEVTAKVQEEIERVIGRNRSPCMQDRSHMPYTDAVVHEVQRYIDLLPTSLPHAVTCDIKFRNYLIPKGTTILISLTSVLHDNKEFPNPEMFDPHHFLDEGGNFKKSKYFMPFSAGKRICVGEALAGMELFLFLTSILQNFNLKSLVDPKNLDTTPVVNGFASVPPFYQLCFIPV

Cytochrome P450 2C19 = Cytochrome P450 2C19 (Homo sapiens, UniProt P33261); experiment: Inhibition of CYP2C19 (unknown origin) using MFC as substrate after 30 mins by fluorescence assay; format: ADME
Cytochrome P450 2C19, sequence (P33261 whole entry): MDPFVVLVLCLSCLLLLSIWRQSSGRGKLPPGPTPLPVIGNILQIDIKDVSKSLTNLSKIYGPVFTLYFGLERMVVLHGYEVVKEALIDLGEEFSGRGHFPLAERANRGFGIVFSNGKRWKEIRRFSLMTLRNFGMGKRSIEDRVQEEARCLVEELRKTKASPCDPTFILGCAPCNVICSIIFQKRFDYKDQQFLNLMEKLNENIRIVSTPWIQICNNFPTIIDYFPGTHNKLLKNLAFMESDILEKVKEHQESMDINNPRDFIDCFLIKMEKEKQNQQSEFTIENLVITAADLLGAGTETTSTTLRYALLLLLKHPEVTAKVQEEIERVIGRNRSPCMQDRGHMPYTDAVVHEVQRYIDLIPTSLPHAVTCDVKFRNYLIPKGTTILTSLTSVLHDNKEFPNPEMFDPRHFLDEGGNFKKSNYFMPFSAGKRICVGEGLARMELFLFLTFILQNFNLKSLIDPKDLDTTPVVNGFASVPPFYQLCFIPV

Cytochrome P450 1A2 = biological target: T2, Cytochrome P450 1A2 (Homo sapiens, UniProt P05177); experiment: Inhibition of CYP1A2 (unknown origin) using CEC as substrate after 15 mins by fluorescence assay; format: ADME
T2 sequence (P05177 whole entry): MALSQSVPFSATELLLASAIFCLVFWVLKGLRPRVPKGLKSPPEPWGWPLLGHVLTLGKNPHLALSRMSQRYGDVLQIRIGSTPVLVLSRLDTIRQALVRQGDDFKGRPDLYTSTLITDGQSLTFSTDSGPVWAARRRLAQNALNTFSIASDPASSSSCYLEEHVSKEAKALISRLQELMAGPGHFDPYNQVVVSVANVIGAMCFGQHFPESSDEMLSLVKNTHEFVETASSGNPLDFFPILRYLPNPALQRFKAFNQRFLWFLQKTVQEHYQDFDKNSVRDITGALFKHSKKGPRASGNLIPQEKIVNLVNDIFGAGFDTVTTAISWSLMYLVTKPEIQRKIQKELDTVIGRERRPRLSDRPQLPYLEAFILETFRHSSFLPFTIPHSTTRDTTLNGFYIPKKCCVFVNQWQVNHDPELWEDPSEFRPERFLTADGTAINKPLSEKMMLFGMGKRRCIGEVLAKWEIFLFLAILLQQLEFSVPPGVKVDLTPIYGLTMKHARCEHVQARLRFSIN

Cytochrome P450 2D6 = Cytochrome P450 2D6 (Homo sapiens, UniProt P10635); experiment: Inhibition of CYP2D6 (unknown origin) using AMMC as substrate after 30 mins by fluorescence assay; format: ADME
Cytochrome P450 2D6, sequence (P10635 whole entry): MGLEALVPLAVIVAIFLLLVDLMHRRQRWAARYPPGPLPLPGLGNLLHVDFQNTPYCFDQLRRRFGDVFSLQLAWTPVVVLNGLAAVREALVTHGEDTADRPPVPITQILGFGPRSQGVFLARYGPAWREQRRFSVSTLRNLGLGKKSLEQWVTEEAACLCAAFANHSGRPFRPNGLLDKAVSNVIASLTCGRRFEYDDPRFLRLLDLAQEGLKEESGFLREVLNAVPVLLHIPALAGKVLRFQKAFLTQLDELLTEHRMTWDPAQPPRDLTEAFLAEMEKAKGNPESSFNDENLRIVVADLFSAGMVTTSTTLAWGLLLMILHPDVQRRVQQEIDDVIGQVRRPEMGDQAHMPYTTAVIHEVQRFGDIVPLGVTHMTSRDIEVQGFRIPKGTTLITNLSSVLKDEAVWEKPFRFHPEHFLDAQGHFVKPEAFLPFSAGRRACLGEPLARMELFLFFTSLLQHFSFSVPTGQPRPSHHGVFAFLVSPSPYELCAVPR

Cytochrome P450 3A4 = Cytochrome P450 3A4 (Homo sapiens, UniProt P08684); experiment: Inhibition of CYP3A4 (unknown origin) after 10 mins by fluorescence assay; format: ADME
Cytochrome P450 3A4, sequence (P08684 whole entry): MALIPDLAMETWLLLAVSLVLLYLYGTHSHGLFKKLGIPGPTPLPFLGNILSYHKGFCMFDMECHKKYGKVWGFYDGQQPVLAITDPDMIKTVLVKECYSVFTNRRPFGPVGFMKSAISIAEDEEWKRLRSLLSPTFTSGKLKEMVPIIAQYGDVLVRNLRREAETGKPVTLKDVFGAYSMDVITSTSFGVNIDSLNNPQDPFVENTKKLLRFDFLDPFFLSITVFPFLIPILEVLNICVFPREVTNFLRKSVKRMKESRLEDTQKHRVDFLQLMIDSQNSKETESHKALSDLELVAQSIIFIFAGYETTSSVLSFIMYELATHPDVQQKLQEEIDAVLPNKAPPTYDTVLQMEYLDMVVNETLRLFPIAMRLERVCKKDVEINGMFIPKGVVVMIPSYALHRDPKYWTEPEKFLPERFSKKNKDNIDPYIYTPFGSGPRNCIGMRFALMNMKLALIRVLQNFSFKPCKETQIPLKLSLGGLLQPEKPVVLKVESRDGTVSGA

Structure (SMILES) | Papp [1] [×10⁻⁶ cm/s] | GI50 (HCC1954) [µM] | GI50 (MDA-MB-231) [µM] | GI50 (SK-BR-3) [µM] | GI50 (MDA-MB-468) [µM] | GI50 (MCF7) [µM] | IC50 [2] [µM] | IC50 [3] [µM] | IC50 [4] [µM] | IC50 [5] [µM] | IC50 (Cytochrome P450 2C9) [µM] | IC50 (Cytochrome P450 2C19) [µM] | IC50 (Cytochrome P450 1A2) [µM] | IC50 (Cytochrome P450 2D6) [µM] | IC50 (Cytochrome P450 3A4) [µM]
O=C1Nc2ccccc2/C1=C\c1ccc2c(/C=C/c3ccc(C(=O)O)cc3)n[nH]c2c1 | 2.1 | 2 | > 50 | 16 | 0.8 | 6.8 | > 10 | > 10 | > 10 | 0.00082 |  |  |  |  | 
O=C1Nc2ccccc2/C1=C\c1ccc2c(/C=C/c3ccccn3)n[nH]c2c1 |  | 30 | 8.1 | 1.2 | 0.78 | 1.7 | > 10 | > 10 | > 10 | 0.013 |  |  |  |  | 
COc1ccc2c(c1)/C(=C\c1ccc3c(/C=C/c4cccnc4)n[nH]c3c1)C(=O)N2 |  | > 50 | > 50 | 4.6 | 0.19 | 0.12 | > 10 | > 10 | > 10 | 0.00048 |  |  |  |  | 
O=C1Nc2ccc(Cl)cc2/C1=C\c1ccc2c(/C=C/c3ccncc3)n[nH]c2c1 |  | > 50 | > 50 | > 50 | 0.32 | 0.16 | > 10 | > 10 | > 10 | 0.0023 |  |  |  |  | 
Cc1ccc2c(c1)/C(=C\c1ccc3c(/C=C/c4ccncc4)n[nH]c3c1)C(=O)N2 |  | 13 | 5 | > 50 | 0.12 | 0.07 | > 10 | > 10 | > 10 | 0.0014 |  |  |  |  | 
COc1ccc2c(c1)/C(=C\c1ccc3c(/C=C/c4ccncc4)n[nH]c3c1)C(=O)N2 |  | 3.1 | 21 |  | 0.14 | 0.04 | > 10 | > 10 | > 10 | 0.00045 |  |  |  |  | 
O=C1Nc2ccc(O)cc2/C1=C\c1ccc2c(/C=C/c3ccncc3)n[nH]c2c1 | 4 | > 50 |  | > 50 | 0.73 | > 50 | > 10 | > 10 | > 10 | 0.0009 |  |  |  |  | 
O=C1Nc2ccccc2/C1=C\c1ccc2c(/C=C/c3ccccc3)n[nH]c2c1 |  |  | > 50 | 12 | 4.4 | 5.2 | > 10 | > 10 | > 10 | 0.042 |  |  |  |  | 
COc1ccc2c(c1)/C(=C\c1ccc3c(/C=C/c4ccc(CN(C)C)cc4)n[nH]c3c1)C(=O)N2 |  | 1.4 | 0.01 | 0.03 | 0.03 | < 0.01 | > 10 | > 10 | > 10 | 0.00032 |  |  |  |  | 
CN1CCN(c2ccc(/C=C/c3n[nH]c4cc(/C=C5/C(=O)Nc6ccccc65)ccc34)cn2)CC1 | 335 | 0.37 | < 0.01 | 1.1 | 0.02 | 0.02 | > 10 | > 10 | > 10 | 0.0014 | 0.9 | 0.44 | 10 | 10 | 0.8
COc1cc(/C=C2\C(=O)Nc3ccc(Br)cc32)cc(Br)c1OC |  |  |  |  |  |  |  | > 10 |  | 13 |  |  |  |  | 
O=C1Nc2ccccc2/C1=C/c1ccccc1O |  |  |  |  |  |  |  | 29 |  | 6.1 |  |  |  |  | 
O=C1Nc2ccccc2/C1=C\c1ccc2cn[nH]c2c1 |  |  |  |  |  |  | > 10 | 24 | 5.7 |  |  |  |  |  | 
O=C1Nc2ccc(F)cc2/C1=C/c1ccc2cn[nH]c2c1 |  |  |  |  |  |  | 24 | 15 | > 10 | 0.24 |  |  |  |  | 
O=C1Nc2ccc(Cl)cc2/C1=C\c1ccc2cn[nH]c2c1 |  |  |  |  |  |  | > 10 | > 10 | > 10 | 0.054 |  |  |  |  | 
O=C1Nc2cc(Cl)ccc2/C1=C\c1ccc2cn[nH]c2c1 |  |  |  |  |  |  | > 10 | 26 | > 10 | 1.3 |  |  |  |  | 
CC(=O)Nc1ccc2c(c1)NC(=O)/C2=C/c1ccc2cn[nH]c2c1 |  |  |  |  |  |  | > 10 | > 10 | 10 | 1.2 |  |  |  |  | 
O=C1Nc2ccc(I)cc2/C1=C/c1cc(Br)c(O)c(Br)c1 |  |  |  |  |  |  |  | 4.6 |  | 0.23 |  |  |  |  | 

Further lines, results first:

Papp [1] [×10⁻⁶ cm/s] | GI50 (HCC1954) [µM] | GI50 (MDA-MB-231) [µM] | GI50 (SK-BR-3) [µM] | GI50 (MDA-MB-468) [µM] | GI50 (MCF7) [µM] | IC50 [2] [µM] | IC50 [3] [µM] | IC50 [4] [µM] | IC50 [5] [µM] | IC50 (Cytochrome P450 2C9) [µM] | IC50 (Cytochrome P450 2C19) [µM] | IC50 (Cytochrome P450 1A2) [µM] | IC50 (Cytochrome P450 2D6) [µM] | IC50 (Cytochrome P450 3A4) [µM] | Structure (SMILES)
 | 12 | > 50 | > 50 | 0.29 | 0.28 | > 10 | > 10 | > 10 | 0.002 |  |  |  |  |  | O=C1Nc2ccccc2/C1=C\c1ccc2c(/C=C/c3cccnc3)n[nH]c2c1
 | 33 | > 50 | 13 | 0.09 | 1.7 | > 10 | > 10 | > 10 | 0.0016 |  |  |  |  |  | CCc1ccc2c(c1)/C(=C\c1ccc3c(/C=C/c4cccnc4)n[nH]c3c1)C(=O)N2
 |  |  |  |  |  |  | 3.6 |  | 0.86 |  |  |  |  |  | COc1cc(/C=C2\C(=O)Nc3ccc(Br)cc32)cc(Cl)c1O
 |  |  |  |  |  |  | > 10 |  | 6.1 |  |  |  |  |  | COc1cc(/C=C2\C(=O)N(C)c3ccc(Br)cc32)cc(Cl)c1O
 |  |  |  |  |  |  | 25 |  | 0.86 |  |  |  |  |  | O=C1Nc2ccccc2/C1=C/c1cccc(O)c1
 |  |  |  |  |  |  | > 10 |  | 13 |  |  |  |  |  | O=C1Nc2ccc(Br)cc2/C1=C/c1ccc(O)c(O)c1
 |  |  |  |  |  | > 10 | 29 | 8.9 | 2.2 |  |  |  |  |  | O=C1Nc2ccccc2/C1=C\c1ccc2[nH]nnc2c1
 |  |  |  |  |  | 11 | 20 | 1.9 | 0.39 |  |  |  |  |  | O=C1Nc2ccccc2/C1=C/c1ccc2[nH]ncc2c1
 |  |  |  |  |  |  | 15 | 4.4 | 0.06 |  |  |  |  |  | O=C1Nc2ccc(F)cc2/C1=C\c1ccc2cn[nH]c2c1
 |  |  |  |  |  | < 10 | 10 | < 10 | 0.047 |  |  |  |  |  | COc1ccc2c(c1)/C(=C\c1ccc3cn[nH]c3c1)C(=O)N2
 |  |  |  |  |  |  | 49 |  | 10 |  |  |  |  |  | CNC(=O)c1ccc2c(c1)/C(=C\c1ccc3cn[nH]c3c1)C(=O)N2
 |  |  |  |  |  | > 10 | > 10 | 10 | 6.3 |  |  |  |  |  | CC(=O)Nc1ccc2c(c1)/C(=C\c1ccc3cn[nH]c3c1)C(=O)N2
 |  |  |  |  |  |  | 25 |  | 0.23 |  |  |  |  |  | O=C1Nc2ccccc2/C1=C/c1ccc(O)cc1
 | 2.7 |  |  | 1.3 |  |  |  |  |  |  |  |  |  |  | CNC(=O)c1ccccc1Sc1ccc2c(/C=C/c3ccccn3)n[nH]c2c1 [AXITINIB]
